Measured values taken from PubChem BioAssay AID206 (DTP/NCI, 2004).
Where “and” joins values, the source holds several entries; their conditions need not be identical. Equal values may be shown once. Inconclusive results are not listed.

Test system: nude mice, HT29 intrarenal xenograft, tumor weight T/C
Assay: NCI In Vivo Anticancer Drug Screen. Data for tumor model HT29;CX-1 Human Adenocarcinoma (MER+) (intrarenal inoculation) in NU/NU Swiss (nude) mice
Conditions: endpoint: mean tumor weight change, higher = larger tumour
Procedure: The antitumor activity of compounds was measured in mice bearing transplantable tumors. Survival or tumor size were measured and the results are expressed as the measurement made in the treated group (T) divided by the measurement made in the vehicle treated control group (C). The tumor model used in this assay is HT29;CX-1 Human Adenocarcinoma (MER+) (intrarenal inoculation) in NU/NU Swiss (nude) mice

[1] = dose: 75.0 mg/kg/injection, schedule: Q04DX004 (sc), vehicle: saline
[2] = dose: 150.0 mg/kg/injection, schedule: Q04DX004 (sc), vehicle: saline
[3] = dose: 300.0 mg/kg/injection, schedule: Q04DX004 (sc), vehicle: saline
[4] = dose: 75.0 mg/kg/injection, schedule: Q04DX004 (sc), vehicle: saline with Tween-80
[5] = dose: 150.0 mg/kg/injection, schedule: Q04DX004 (sc), vehicle: saline with Tween-80
[6] = dose: 300.0 mg/kg/injection, schedule: Q04DX004 (sc), vehicle: saline with Tween-80
[7] = dose: 5.0 mg/kg/injection, schedule: Q04DX004 (sc), vehicle: Klucel (hydroxypropylcellulose) (HPC)
[8] = dose: 10.0 mg/kg/injection, schedule: Q04DX004 (sc), vehicle: Klucel (hydroxypropylcellulose) (HPC)
[9] = dose: 150.0 mg/kg/injection, schedule: Q04DX004 (sc), vehicle: Klucel (hydroxypropylcellulose) (HPC)
[10] = dose: 600.0 mg/kg/injection, schedule: Q04DX004 (sc), vehicle: Klucel (hydroxypropylcellulose) (HPC)
[11] = dose: 12.5 mg/kg/injection, schedule: Q01DX010 (sc), vehicle: saline
[12] = dose: 600.0 mg/kg/injection, schedule: Q04DX004 (sc), vehicle: saline with Tween-80
[13] = dose: 1200.0 mg/kg/injection, schedule: Q04DX004 (sc), vehicle: saline with Tween-80
[14] = dose: 100.0 mg/kg/injection, schedule: Q01DX010 (sc), vehicle: saline with Tween-80
[15] = dose: 400.0 mg/kg/injection, schedule: Q01DX010 (sc), vehicle: saline with Tween-80
[16] = dose: 800.0 mg/kg/injection, schedule: Q01DX010 (sc), vehicle: saline with Tween-80
[17] = dose: 25.0 mg/kg/injection, schedule: Q01DX010 (sc), vehicle: saline
[18] = dose: 50.0 mg/kg/injection, schedule: Q01DX010 (sc), vehicle: saline
[19] = dose: 100.0 mg/kg/injection, schedule: Q01DX010 (sc), vehicle: saline

For `COC1C(OC(=O)/C=C/C=C/C=C/C=C/C(=O)O)CCC2(CO2)C1C1(C)OC1CC=C(C)C` (stereo unspecified), the T/C [1] was 104 % of control, the T/C [2] was 96 % of control and the T/C [3] was 119 % of control.
With `C1=CCOCOC1` the T/C (dose: 37.5 mg/kg/injection, schedule: Q04DX004 (sc), vehicle: saline with Tween-80) was 69 % of control, the T/C [4] was 70 % of control and the T/C [5] was 68 % of control. For the same molecule, the T/C [6] was 72 % of control.
With `Cc1ccc2c(ccc(CC(=S)[S-])[n+]2C)c1` the T/C (dose: 50.0 mg/kg/injection, schedule: Q01DX010 (sc), vehicle: Klucel (hydroxypropylcellulose) (HPC)) was 96 % of control, the T/C (dose: 100.0 mg/kg/injection, schedule: Q01DX010 (sc), vehicle: Klucel (hydroxypropylcellulose) (HPC)) was 85 % of control and the T/C (dose: 200.0 mg/kg/injection, schedule: Q01DX010 (sc), vehicle: Klucel (hydroxypropylcellulose) (HPC)) was 44 % of control. For the same molecule, the T/C (dose: 400.0 mg/kg/injection, schedule: Q01DX010 (sc), vehicle: Klucel (hydroxypropylcellulose) (HPC)) was 67 % of control.
For `CC(=O)OCC1OC([S-])C(OC(C)=O)C(OC(C)=O)C1OC(C)=O.CC[PH+](CC)CC.CC[PH+](CC)CC.[Au].[Au]` (stereo unspecified), the T/C [7] was 177 % of control and the T/C [8] was 113 % of control.
`O=C1C=CC(=O)N1c1ccc(Cl)cc1` was tested, and the T/C (dose: 37.5 mg/kg/injection, schedule: Q04DX004 (sc), vehicle: Klucel (hydroxypropylcellulose) (HPC)) was 70 % of control, the T/C (dose: 75.0 mg/kg/injection, schedule: Q04DX004 (sc), vehicle: Klucel (hydroxypropylcellulose) (HPC)) was 70 % of control and the T/C [9] was 106 % of control.
With `Clc1ccc(C2SC=Cc3ccccc32)cc1` (stereo unspecified) the T/C [10] was 48 % of control.
`Nc1nncs1` was tested, and the T/C (dose: 3.13 mg/kg/injection, schedule: Q01DX010 (sc), vehicle: saline) was 97 % of control and the T/C [11] was 84 % of control.
With `CC(/C=C/c1ccccc1)=Nc1ccccc1` the T/C [4] was 58 % of control, the T/C [5] was 98 % of control and the T/C [6] was 50 % of control. The T/C [12] was 63 % of control.
For `O=C1c2cccc3cc([N+](=O)[O-])cc(c23)C(=O)N1CCN1CCCC1`, the T/C (dose: 18.0 mg/kg/injection, schedule: Q04DX004 (sc), vehicle: saline with Tween-80) was 110 % of control and the T/C (dose: 36.0 mg/kg/injection, schedule: Q04DX004 (sc), vehicle: saline with Tween-80) was 115 % of control.
For `C[n+]1c(/C=N/NC(N)=S)ccc2ccccc21`, the T/C [5] was 75 % of control, the T/C [12] was 66 % of control and the T/C [13] was 72 % of control.
With `COc1ccc2nc3cc(Cl)ccc3c(NCCNCCNCCNc3c4ccc(Cl)cc4nc4ccc(OC)cc34)c2c1` the T/C [14] was 116 % of control, the T/C [15] was 124 % of control and the T/C [16] was 93 % of control.
With `C[n+]1c(/C=C\C=C\N2CCCCC2)sc2ccccc21` the T/C (dose: 1.5 mg/kg/injection, schedule: Q04DX004 (sc), vehicle: Klucel (hydroxypropylcellulose) (HPC)) was 84 % of control and the T/C (dose: 3.0 mg/kg/injection, schedule: Q04DX004 (sc), vehicle: Klucel (hydroxypropylcellulose) (HPC)) was 41 % of control.
In the case of `C1OC1C1CO1` (stereo unspecified), the T/C [11] is reported as 164 % of control and the T/C [17] is reported as 168 % of control.
`CC1CN1P1(N2CC2C)=NP(N2CC2C)(N2CC2C)=NP(N2CC2C)(N2CC2C)=N1` (stereo unspecified) was tested, and the T/C [18] was 79 % of control and the T/C [19] was 101 % of control.
`Nc1ncnc2c1ncn2C1OC(CO)C(O)C1O` (stereo unspecified) was tested, and the T/C (dose: 37.5 mg/kg/injection, schedule: Q04DX004 (sc), vehicle: saline) was 97 % of control, the T/C [1] was 84 % of control and the T/C [9] was 67 % of control. The T/C [2] was 44 % of control, the T/C (dose: 300.0 mg/kg/injection, schedule: Q04DX004 (sc), vehicle: Klucel (hydroxypropylcellulose) (HPC)) was 78 % of control and the T/C [10] was 94 % of control. For the same molecule, the T/C (dose: 1200.0 mg/kg/injection, schedule: Q04DX004 (sc), vehicle: Klucel (hydroxypropylcellulose) (HPC)) was 66 % of control.
With `NC(N)=NOCC[C@@H](N)C(=O)O` the T/C [2] was 108 % of control, the T/C [3] was 75 % of control and the T/C (dose: 600.0 mg/kg/injection, schedule: Q04DX004 (sc), vehicle: saline) was 76 % of control. The T/C (dose: 1200.0 mg/kg/injection, schedule: Q04DX004 (sc), vehicle: saline) was 62 % of control.
For `CCOC(=O)c1c[nH]c2oc(/C=N/N3CC(CN4CCOCC4)OC3=O)cc2c1=O` (stereo unspecified), the T/C [18] was 69 % of control, the T/C [19] was 124 % of control and the T/C (dose: 200.0 mg/kg/injection, schedule: Q01DX010 (sc), vehicle: saline) was 86 % of control.
`C[C@H](CCC[C@H](C)OS(=O)(=O)c1ccccc1)OS(=O)(=O)c1ccccc1` was tested, and the T/C [4] was 49 % of control and the T/C [5] was 35 % of control.
In the case of `O=C(CO)c1ccc([N+](=O)[O-])cc1`, the T/C [14] is reported as 63 % of control, the T/C (dose: 200.0 mg/kg/injection, schedule: Q01DX010 (sc), vehicle: saline with Tween-80) is reported as 70 % of control and the T/C [15] is reported as 122 % of control. The T/C [16] was 75 % of control.
In the case of `CC1=C(/C=C/C(C)=C/C=C/C(C)=C/C=O)C(C)(C)CCC1`, the T/C [5] is reported as 61 % of control, the T/C [6] is reported as 62 % of control and the T/C [12] is reported as 67 % of control.
`CO[C@H]1Nc2c(ccc(C)c2O)C(=O)N2C=C(/C=C/C(N)=O)C[C@@H]12` was tested, and the T/C (dose: 0.5 mg/kg/injection, schedule: Q04DX004 (sc), vehicle: saline + alcohol) was 98 % of control and the T/C (dose: 1.0 mg/kg/injection, schedule: Q04DX004 (sc), vehicle: saline + alcohol) was 54 % of control.
With `Oc1cc2ccccc2c(-c2c(O)c(O)cc3ccccc23)c1O` the T/C (dose: 225.0 mg/kg/injection, schedule: Q04DX004 (sc), vehicle: saline with Tween-80) was 101 % of control, the T/C (dose: 450.0 mg/kg/injection, schedule: Q04DX004 (sc), vehicle: saline with Tween-80) was 55 % of control and the T/C (dose: 900.0 mg/kg/injection, schedule: Q04DX004 (sc), vehicle: saline with Tween-80) was 86 % of control. For the same molecule, the T/C [13] was 120 % of control, the T/C (dose: 1800.0 mg/kg/injection, schedule: Q04DX004 (sc), vehicle: saline with Tween-80) was 28 % of control and the T/C (dose: 2400.0 mg/kg/injection, schedule: Q04DX004 (sc), vehicle: saline with Tween-80) was 94 % of control.
`NC1=NCN(C2OC(CO)C(O)C2O)C(=O)N1` (stereo unspecified) was tested, and the T/C [17] was 70 % of control, the T/C [18] was 31 % of control and the T/C [19] was 38 % of control.
For `O=C1C=C(C2OC(CO)C(O)C2O)C(=O)N1` (stereo unspecified), the T/C (dose: 6.25 mg/kg/injection, schedule: Q01DX010 (sc), vehicle: saline) was 78 % of control and the T/C [11] was 78 % of control.
In the case of `COC(=Nc1ccccc1)SSC(C)C`, the T/C [5] is reported as 104 % of control, the T/C [6] is reported as 118 % of control and the T/C [12] is reported as 117 % of control. For the same molecule, the T/C [13] was 117 % of control.
For `O=C(O)CCCc1ccc(N(CCCl)CCCl)cc1`, the T/C (dose: 0.13 mg/kg/injection, schedule: Q04DX004 (ip), vehicle: Klucel (hydroxypropylcellulose) (HPC)) was 88 % of control, the T/C (dose: 0.2 mg/kg/injection, schedule: Q04DX004 (ip), vehicle: Klucel (hydroxypropylcellulose) (HPC)) was 109 % of control and the T/C (dose: 0.3 mg/kg/injection, schedule: Q04DX004 (ip), vehicle: Klucel (hydroxypropylcellulose) (HPC)) was 83 % of control.
`COc1cc2cc(c1Cl)N(C)C(=O)CC(OC(=O)C(C)C)C1(C)OC1C(C)C1CC(O)(NC(=O)O1)C(OC)/C=C/C=C(C)C2` (stereo unspecified) was tested, and the T/C (dose: 12.5 micrograms/kg/injection, schedule: Q04DX004 (sc), vehicle: saline + alcohol) was 74 % of control, the T/C (dose: 25.0 micrograms/kg/injection, schedule: Q04DX004 (sc), vehicle: saline + alcohol) was 155 % of control and the T/C (dose: 50.0 micrograms/kg/injection, schedule: Q04DX004 (sc), vehicle: saline + alcohol) was 165 % of control. The T/C (dose: 100.0 micrograms/kg/injection, schedule: Q04DX004 (sc), vehicle: saline + alcohol) was 31 % of control and the T/C (dose: 500.0 micrograms/kg/injection, schedule: Q04DX004 (sc), vehicle: saline + alcohol) was 5 % of control.
For `NC(Cc1ccc(N(CCCl)CCCl)cc1)C(=O)O` (stereo unspecified), the T/C [7] was 70 % of control, the T/C [8] was 36 % of control and 53 % of control and the T/C (dose: 20.0 mg/kg/injection, schedule: Q04DX004 (sc), vehicle: Klucel (hydroxypropylcellulose) (HPC)) was -16 % of control.
`CC(=O)Oc1ccccc1O` was tested, and the T/C (dose: 75.0 mg/kg/injection, schedule: Q04DX004 (sc), vehicle: saline + Tween-80 + alcohol) was 79 % of control, the T/C (dose: 150.0 mg/kg/injection, schedule: Q04DX004 (sc), vehicle: saline + Tween-80 + alcohol) was 109 % of control and the T/C (dose: 300.0 mg/kg/injection, schedule: Q04DX004 (sc), vehicle: saline + Tween-80 + alcohol) was 119 % of control.
